Results taken from publication PMC8187479, “Sugar phosphate activation of the stress sensor eIF2B” (Nature Communications, 2021).

Target: T1, eIF2Bα (Homo sapiens, UniProt Q14232)
T1 construct: made in house; host or cells: E. coli BL21(DE3)
T1 sequence (Q14232 1-305): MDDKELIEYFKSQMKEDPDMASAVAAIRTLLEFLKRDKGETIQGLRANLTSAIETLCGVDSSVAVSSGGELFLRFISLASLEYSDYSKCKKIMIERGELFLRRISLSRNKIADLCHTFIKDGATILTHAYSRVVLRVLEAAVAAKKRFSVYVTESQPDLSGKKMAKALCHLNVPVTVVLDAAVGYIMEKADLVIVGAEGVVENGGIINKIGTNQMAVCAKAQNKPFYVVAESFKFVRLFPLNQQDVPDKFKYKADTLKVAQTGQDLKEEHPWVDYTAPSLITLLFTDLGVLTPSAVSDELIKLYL
Assay: MIDAS (mass spectrometry integrated with equilibrium dialysis) metabolite binding screen
Settings: eIF2Bα2; 50 μM per metabolite pool; 40 h dialysis at 4 °C
Summary of the method: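 Hits called at Storey q < 0.1 on z-scores of PCA-corrected log2 fold change between protein and metabolite chambers, quantified by FIA-MS in triplicate.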

Structure (SMILES): O=C(CO)[C@@H](O)[C@H](O)[C@H](O)COP(=O)(O)O [F6P, fructose-6-phosphate]
- MIDAS result (enrichment in the protein chamber / hit status): not a MIDAS hit
